In PubChem BioAssay AID290 (DTP/NCI, 2004) one finds T/C data, which are given here for 13 compounds.

In this experiment the test system is mice, P1798 lymphosarcoma sc, survival or tumor weight T/C. Briefly: NCI In Vivo Anticancer Drug Screen. Data for tumor model P1798 Lymphosarcoma (subcutaneous) in unknown mice. As for the experimental part: The antitumor activity of compounds was measured in mice bearing transplantable tumors. Survival or tumor size were measured and the results are expressed as the measurement made in the treated group (T) divided by the measurement made in the vehicle treated control group (C). The tumor model used in this assay is P1798 Lymphosarcoma (subcutaneous) in unknown mice

[1] abbreviates: endpoint: mean tumor weight, dose: 25.0 mg/kg/injection, schedule: Q01DX010 (ip), vehicle: carboxymethylcellulose (CMC), higher = larger tumour.
The mark [2] stands for this setting: endpoint: mean tumor weight, dose: 6.25 mg/kg/injection, schedule: Q01DX010 (ip), vehicle: carboxymethylcellulose (CMC), higher = larger tumour.
Where [3] appears, read: endpoint: mean tumor weight, dose: 12.5 mg/kg/injection, schedule: Q01DX010 (ip), vehicle: carboxymethylcellulose (CMC), higher = larger tumour.
The mark [4] stands for this setting: endpoint: mean tumor weight, dose: 62.5 mg/kg/injection, schedule: Q01DX010 (ip), vehicle: carboxymethylcellulose (CMC), higher = larger tumour.
Where [5] appears, read: endpoint: mean tumor weight, dose: 5.0 mg/kg/injection, schedule: Q01DX010 (ip), vehicle: saline, higher = larger tumour.

“And” between values parts separate entries of the source, which are not always exact repeats. Identical values can stand only once. Inconclusive results are not listed.

For the compound `C[C@H]1C(=O)O[C@@H]2CCN3CC=C(COC(=O)[C@](C)(O)[C@@]1(C)O)[C@H]23`, the T/C is 73 % of control (endpoint: mean tumor weight, dose: 3.75 mg/kg/injection, schedule: Q01DX010 (ip), vehicle: carboxymethylcellulose (CMC), higher = larger tumour); 68 % of control (endpoint: mean tumor weight, dose: 7.5 mg/kg/injection, schedule: Q01DX010 (ip), vehicle: carboxymethylcellulose (CMC), higher = larger tumour); 44 % of control (endpoint: mean tumor weight, dose: 15.0 mg/kg/injection, schedule: Q01DX010 (ip), vehicle: carboxymethylcellulose (CMC), higher = larger tumour); 23 % of control (endpoint: mean tumor weight, dose: 30.0 mg/kg/injection, schedule: Q01DX010 (ip), vehicle: carboxymethylcellulose (CMC), higher = larger tumour).

Consider `CCN(CC)CCNc1ccc(C)c2sc3ccccc3c(=O)c12`, for which the T/C is, setting by setting: (endpoint: mean tumor weight, dose: 3.1 mg/kg/injection, schedule: Q01DX010 (ip), vehicle: methylcellulose (MC), higher = larger tumour) 108 % of control; (endpoint: mean tumor weight, dose: 5.0 mg/kg/injection, schedule: Q01DX010 (ip), vehicle: methylcellulose (MC), higher = larger tumour) 99 % of control; (endpoint: mean tumor weight, dose: 10.0 mg/kg/injection, schedule: Q01DX010 (ip), vehicle: methylcellulose (MC), higher = larger tumour) 68 % of control; (endpoint: mean tumor weight, dose: 20.0 mg/kg/injection, schedule: Q01DX010 (ip), vehicle: methylcellulose (MC), higher = larger tumour) 104 % of control.

Consider `C=CC(CN1CC1)OC(C)=O` (stereo not drawn), for which the T/C (endpoint: mean tumor weight, dose: 4.0 mg/kg/injection, schedule: Q01DX010 (ip), vehicle: saline, higher = larger tumour) is 71 % of control; the T/C (endpoint: mean tumor weight, dose: 6.0 mg/kg/injection, schedule: Q01DX010 (ip), vehicle: saline, higher = larger tumour) is 64 % of control; the T/C (endpoint: mean tumor weight, dose: 8.0 mg/kg/injection, schedule: Q01DX010 (ip), vehicle: saline, higher = larger tumour) is 42 % of control.

For the compound `NC(=O)N(CCCl)N=O`, the T/C is 104 % of control (endpoint: mean tumor weight, dose: 1.0 mg/kg/injection, schedule: Q01DX010 (ip), vehicle: carboxymethylcellulose (CMC), higher = larger tumour); 115 % of control (endpoint: mean tumor weight, dose: 2.0 mg/kg/injection, schedule: Q01DX010 (ip), vehicle: carboxymethylcellulose (CMC), higher = larger tumour); 116 % of control (endpoint: mean tumor weight, dose: 4.0 mg/kg/injection, schedule: Q01DX010 (ip), vehicle: carboxymethylcellulose (CMC), higher = larger tumour); 61 % of control (endpoint: mean tumor weight, dose: 8.0 mg/kg/injection, schedule: Q01DX010 (ip), vehicle: carboxymethylcellulose (CMC), higher = larger tumour).

With `O=c1[nH]c(=O)n(C2CC(O)C(CO)O2)cc1F` (stereo not drawn), the T/C reads like this: under setting [1], 42 % of control; (endpoint: mean tumor weight, dose: 50.0 mg/kg/injection, schedule: Q01DX010 (ip), vehicle: carboxymethylcellulose (CMC), higher = larger tumour) 30 % of control.

In the case of `O=C(Nc1ccc(C2=NCCN2)cc1)c1ccc(C(=O)Nc2ccc(C3=NCCN3)cc2)c(Cl)c1`, the T/C runs as follows: (endpoint: mean tumor weight, dose: 12.5 mg/kg/injection, schedule: Q01DX010 (ip), vehicle: water, higher = larger tumour) 70 % of control; (endpoint: mean tumor weight, dose: 14.0 mg/kg/injection, schedule: Q01DX011 (ip), vehicle: carboxymethylcellulose (CMC), higher = larger tumour) 7 % of control; (endpoint: mean tumor weight, dose: 28.0 mg/kg/injection, schedule: Q01DX001 (ip), vehicle: carboxymethylcellulose (CMC), higher = larger tumour) 80 % of control; (endpoint: mean tumor weight, dose: 55.0 mg/kg/injection, schedule: Q01DX001 (ip), vehicle: carboxymethylcellulose (CMC), higher = larger tumour) 33 % of control.

Turning to `O=C(O)CCCc1ccc(N(CCCl)CCCl)cc1`, the T/C is, setting by setting: (endpoint: mean tumor weight, dose: 3.12 mg/kg/injection, schedule: Q01DX010 (ip), vehicle: carboxymethylcellulose (CMC), higher = larger tumour) 86 % of control; under setting [2], 89 % of control; under setting [3], 104 % of control; under setting [1], 73 % of control.

Turning to `CN(/N=N/N(C)c1ccccc1)c1ccccc1`, the T/C is, setting by setting: (endpoint: mean tumor weight, dose: 15.6 mg/kg/injection, schedule: Q01DX010 (ip), vehicle: carboxymethylcellulose (CMC), higher = larger tumour) 59 % of control; (endpoint: mean tumor weight, dose: 31.3 mg/kg/injection, schedule: Q01DX010 (ip), vehicle: carboxymethylcellulose (CMC), higher = larger tumour) 44 % of control; under setting [4], 39 % of control; (endpoint: mean tumor weight, dose: 125.0 mg/kg/injection, schedule: Q01DX010 (ip), vehicle: carboxymethylcellulose (CMC), higher = larger tumour) 58 % of control.

For `O=c1[nH]cc(F)c(=O)[nH]1`, the T/C was 119 % of control (endpoint: mean tumor weight, dose: 2.0 mg/kg/injection, schedule: Q01DX010 (ip), vehicle: saline, higher = larger tumour); 108 % of control (endpoint: mean tumor weight, dose: 2.5 mg/kg/injection, schedule: Q01DX015 (ip), vehicle: carboxymethylcellulose (CMC), higher = larger tumour); 36 % of control under setting [5]; 44 % of control (endpoint: mean tumor weight, dose: 6.3 mg/kg/injection, schedule: Q01DX010 (ip), vehicle: saline, higher = larger tumour); 119 % of control (endpoint: mean tumor weight, dose: 10.0 mg/kg/injection, schedule: Q01DX015 (ip), vehicle: carboxymethylcellulose (CMC), higher = larger tumour); 27 % of control (endpoint: mean tumor weight, dose: 12.5 mg/kg/injection, schedule: Q01DX010 (ip), vehicle: saline, higher = larger tumour). Further, the T/C by setting is: (endpoint: mean tumor weight, dose: 40.0 mg/kg/injection, schedule: Q01DX001 (ip), vehicle: carboxymethylcellulose (CMC), higher = larger tumour) 71 % of control; (endpoint: mean tumor weight, dose: 80.0 mg/kg/injection, schedule: Q01DX001 (ip), vehicle: carboxymethylcellulose (CMC), higher = larger tumour) 69 % of control; (endpoint: median survival time, dose: 5.0 mg/kg/injection, schedule: Q01DX010 (ip), vehicle: saline, higher = longer survival) 97 % of control and 103 % of control (2×); (endpoint: median survival time, dose: 10.0 mg/kg/injection, schedule: Q01DX010 (ip), vehicle: saline, higher = longer survival) 117 % of control (2×) and 103 % of control; (endpoint: median survival time, dose: 20.0 mg/kg/injection, schedule: Q01DX010 (ip), vehicle: saline, higher = longer survival) 116 % of control and 39 % of control; (endpoint: median survival time, dose: 40.0 mg/kg/injection, schedule: Q01DX010 (ip), vehicle: saline, higher = longer survival) 24 % of control and 28 % of control. Besides, under “endpoint: median survival time, dose: 80.0 mg/kg/injection, schedule: Q01DX010 (ip), vehicle: saline, higher = longer survival”, the T/C is 26 % of control.

For `N=[N+]=CC(=O)OCC(N)C(=O)O` (stereo not drawn), the T/C is 98 % of control (endpoint: mean tumor weight, dose: 1.25 mg/kg/injection, schedule: Q01DX010 (ip), vehicle: saline, higher = larger tumour); 56 % of control (endpoint: mean tumor weight, dose: 2.5 mg/kg/injection, schedule: Q01DX010 (ip), vehicle: saline, higher = larger tumour); 17 % of control and 24 % of control under setting [5].

On to `C1CN1c1nc(N2CC2)nc(N2CC2)n1`, for which the T/C (endpoint: mean tumor weight, dose: 0.06 mg/kg/injection, schedule: Q01DX010 (ip), vehicle: saline, higher = larger tumour) was 77 % of control and 78 % of control; the T/C (endpoint: mean tumor weight, dose: 0.12 mg/kg/injection, schedule: Q01DX010 (ip), vehicle: saline, higher = larger tumour) was 78 % of control and 86 % of control; the T/C (endpoint: mean tumor weight, dose: 0.25 mg/kg/injection, schedule: Q01DX010 (ip), vehicle: saline, higher = larger tumour) was 44 % of control and 54 % of control.

With `S=P(N1CCOCC1)(N1CC1)N1CC1`, the T/C is 82 % of control under setting [2] and 60 % of control under setting [3].

As to `CN(C)c1nc(N(C)C)nc(N(C)C)n1`, the T/C runs as follows: under setting [4], 119 % of control; (endpoint: mean tumor weight, dose: 250.0 mg/kg/injection, schedule: Q01DX010 (ip), vehicle: carboxymethylcellulose (CMC), higher = larger tumour) 88 % of control; (endpoint: mean tumor weight, dose: 500.0 mg/kg/injection, schedule: Q01DX010 (ip), vehicle: carboxymethylcellulose (CMC), higher = larger tumour) 106 % of control.
